In patent US20240374779A1, “ANTIMICROBIAL ARTICLES, METHODS OF MAKING AND USING SAME” (TERASAKI INSTITUTE FOR BIOMEDICAL INNOVATION, priority 2021, published 2024):

What was measured:
[1] = rats; cited from earlier work
[2] = hydrogen peroxide release kinetics from microspheres (dissolved oxygen in PBS with catalase); type: physicochemical; settings: early stages (0-3 days); levels decreased gradually
Protocol: The hydrogen peroxide release kinetics of the CPO/PLGA MPS were determined indirectly by measuring the dissolved oxygen levels in phosphate buffered saline (PBS) after breaking down the hydrogen peroxide with catalase. Dissolved oxygen levels were measured by an oxygen sensor probe (ISO-OXY-2, World Precision Instruments), which was connected to the free radical analyzer (TBR1025, World Precision Instruments). MPS with different CPO loading and MPS with different dimensions were evaluated. […] Catalase was used to catalyze the decomposition of hydrogen peroxide to water and oxygen. […] After fully flushed, the hypoxic chamber with glass vials containing samples was sealed and placed into a cell culture incubator at 37° C.

[3] = system: C. difficile spores; settings: similar concentrations (about 100 ppm) of vaporized hydrogen peroxide; cited from earlier work

Compound: NC(N)=O [Urea]
- LD50 [1]: about 15 g/kg

Compound: [Ca+2].[O-][O-] [free CPO, calcium peroxide]
- peroxide levels with free CPO in PBS [2]: Elevated peroxide levels

Compound: OO [vaporized hydrogen peroxide, hydrogen peroxide]
- time to eradicate C. difficile spores [3]: ≤ 20 min
